Where “and” joins values, the source holds several entries; their conditions need not be identical. Identical values can stand only once.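 A five-concentration, 48-hour dose response in 96-well plates underlies each endpoint, interpolated linearly between surrounding concentrations. Abbreviation: GI50, concentration required for 50% inhibition of growth. The concentration for full growth arrest is given as TGI.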
Columns and labels:
Test in all cases: DTP human tumour cell line panel, 48 h
[1] = system: HCC-2998 colon
[2] = system: HOP-92 NSCLC
[3] = system: M14 melanoma
[4] = system: MOLT-4 leukemia
[5] = system: NCI-H226 lung
[6] = system: RXF 393 renal
[7] = system: SF-268 CNS
[8] = system: SN12C renal
[9] = system: SW-620 colon
[10] = system: UACC-257 melanoma

Row | SMILES | GI50 [1] | TGI [1] | GI50 [2] | TGI [2] | GI50 [3] | TGI [3] | GI50 [4] | TGI [4] | GI50 [5] | TGI [5] | GI50 [6] | TGI [6] | GI50 [7] | TGI [7] | GI50 [8] | TGI [8] | GI50 [9] | TGI [9] | GI50 [10] | TGI [10]
1 | CC(=O)Oc1cc2cnc3c4cc(OC(C)=O)c(OC(C)=O)cc4ccc3c2cc1OC(C)=O | 3.74 µM | > 100 µM | 0.538 µM | 37.9 µM | 1.78 µM | > 100 µM | 0.812 µM | > 100 µM | 2.04 µM | 8.91 µM | 1.79 µM | 8.88 µM | 1.22 µM | 17.6 µM | 2.18 µM | > 100 µM | 0.952 µM | > 100 µM | 2.56 µM | > 100 µM
2 | COc1cc2ncnc(Oc3cccc(NC(=O)Nc4cc(C(C)(C)C(F)(F)F)on4)c3)c2cc1OC | 2.29 µM and 3.28 µM | 14.9 µM and > 10 µM | 0.571 µM and 1.13 µM | 3.41 µM and 5.29 µM | 0.105 µM and 0.18 µM | 1.47 µM and 1.91 µM | 2.46 µM and 2.06 µM | > 29.7 µM | 1.13 µM and 1.67 µM | 33.7 µM and > 10 µM | 2.16 µM and 2.68 µM | 8.14 µM and > 10 µM | 2.59 µM and 2.69 µM | 17.4 µM and > 10 µM | 1.61 µM and 1.69 µM | 11.9 µM and > 10 µM | 1.21 µM and 1.6 µM | 20.8 µM and > 10 µM | 0.132 µM and 0.235 µM | 1.08 µM and 3.58 µM
3 | O=C1Nc2ccc3c(c2/C1=C\c1cc2c(cc1Br)OCO2)OCO3 | 1.65 µM | > 100 µM | 1.16 µM | 4.37 µM | 0.341 µM | 5.76 µM | 0.489 µM | > 100 µM | 1.38 µM | 5.35 µM | 0.901 µM | 3.78 µM | 0.524 µM | 3.28 µM | 0.781 µM | 6.47 µM | 0.357 µM | 3.47 µM | 0.685 µM | –
4 | N#Cc1cc(S(=O)(=O)Nc2nc3cc(Cl)ccc3o2)c(SCc2ccccc2)cc1Cl | 12.6 µM | 25.1 µM | 10.5 µM | 23.5 µM | 12.6 µM | 25.1 µM | 18.6 µM | 39 µM | 17.8 µM | 43.4 µM | 12.5 µM | 25 µM | 14.7 µM | 32.2 µM | 15.4 µM | 29.1 µM | 11.7 µM | 23.9 µM | 13 µM | 25.7 µM
5 | COc1cc2c3cc1Oc1c(OC)c(OC)cc4c1C(Cc1ccc(O)c(c1)Oc1ccc(cc1)CC3N(C)CC2)N(C)CC4 (configuration not stated) | 10.9 µM | 37.3 µM and 32.1 µM | 17.2 µM | 94.2 µM and 41.1 µM | – | > 100 µM | 12.1 µM | > 100 µM and 54.9 µM | 34.4 µM | > 100 µM | 2.18 µM | 14.8 µM | 15.2 µM | 64.2 µM and 51.8 µM | 23.4 µM | 47.1 µM and > 100 µM | – | > 100 µM and 33.4 µM | 5.99 µM | > 100 µM and 18.9 µM
6 | COc1cccc(-c2nc3sccn3c2-c2ccnc(NCCCNS(=O)(=O)c3ccccc3)c2)c1 | 4.38 µM | > 100 µM | 0.885 µM | > 100 µM | 3.36 µM | > 100 µM | 2.25 µM | 7.04 µM | 2.92 µM | > 100 µM | 5.79 µM | > 100 µM | 3.46 µM | > 100 µM | 2.76 µM | > 100 µM | 3.81 µM | > 100 µM | 3.57 µM | > 100 µM
